In article PMC3433414, “Oral Administration of the Pimelic Diphenylamide HDAC Inhibitor HDACi 4b Is Unsuitable for Chronic Inhibition of HDAC Activity in the CNS In Vivo” (PLoS ONE, 2012):

Legend:
[1] = target: T1, D1 (h) (Homo sapiens, UniProt P21728); test: Cerep binding, antagonist radioligand; details: read-out: % inhibition of control specific binding
T1 construct: purchased Cerep (Diversity Profile)
Description: (§1) In addition to the HDAC profiling performed, we also queried 4b for any apparent potential off-target effects, which could complicate any finding of efficacy or adverse events in vivo due to ‘polypharmacy’. This was accomplished by screening against a ‘diversity panel’ of 72 binding and 29 enzyme assays, comprised of roughly equal numbers of selective central and peripheral therapeutically relevant targets (Cerep Diversity Profile). This panel included representative targets from diverse enzyme families, G protein coupled receptors, steroid nuclear receptors, voltage- and ligand-gated ion channels. While not totally inclusive, it is a useful tool for discovery compounds to assess their viability as proof of concept molecules to specifically query a particular target. 4b was initially screened at 10 µM in duplicate. The full set of results is provided as Table S1. […] This clean in vitro profile was considered acceptable to proceed to ADME and pharmacokinetic studies.

[2] = tested on: opioid (non‐selective); test: Cerep binding, antagonist radioligand; details: 10 μM
Description: as §1

[3] = tested on: KATP channel; test: Cerep binding, antagonist radioligand; details: 10 μM
Description: as §1

[4] = tested on: P-glycoprotein (Pgp, MDR1); test: Effective efflux ratio in MDR1-MDCK cells; format: in vitro ADME; details: human, pH 7.4; MDCK overexpressing MDR1
Procedure: The MDR1-MDCKII and wild type MDCKII cell lines (obtained from SOLVO Biotechnology) were cultured in accordance with the guidelines provided by SOLVO Biotechnology. Both wild-type MDCK and MDR1-MDCK cells were seeded at a cell density of 2.3×10^5 cells/well into 24-well Transwell plates and cultured for three days to form monolayers. Test compound was loaded into the donor compartments of the Transwell plate (24-well) bearing MDR1-MDCK or wild type MDCK monolayers. Test compound was added to either the apical or basolateral chambers of the Transwell plate assembly at a concentration of 10 µM in Hanks’ Balanced Salt Solution containing 25 mM HEPES (pH 7.4). Lucifer Yellow was added to the apical buffer in all wells and its permeation monitored to assess integrity of the cell layer. […]
After 1 h incubation at 37°C, aliquots were taken from both chambers and added to acetonitrile containing analytical internal standard (carbamazepine) in a 96-well plate. Concentrations of compound in the samples were measured by LC-MS/MS. Concentrations of LY in the samples were measured using a fluorescence plate reader.
The apparent permeability (Papp) values of test compound were determined for both the apical to basal (A>B) and basal to apical (B>A) permeation and the efflux ratio (B>A: A>B) determined in both the wild type MDCK and MDR1-MDCK cells. […]

[5] = tested on: NMDA; test: Cerep binding, antagonist radioligand; details: 10 μM
Description: as §1

[6] = tested on: Na+ channel (site 2); test: Cerep binding, antagonist radioligand; details: 10 μM
Description: as §1

[7] = tested on: M (non‐selective); test: Cerep binding, antagonist radioligand; details: 10 μM
Description: as §1

[8] = tested on: PCP; test: Cerep binding, antagonist radioligand; details: 10 μM
Description: as §1

[9] = tested on: histone acetylation in mouse brain; test: Histone acetylation in brain tissue (central pharmacodynamics); details: 150 mg/kg po bid, five consecutive days; 1 h post last dose
Procedure: Cortical tissue from the mice was assessed using specific antibodies for increases in acetylation of specific lysine residues on Histones H3 (H3K4, H3K9, H3K14) and H4 (H4K5) as well as global acetylation of H3 (Ac-H3) and H4 (Ac-H4). The acetylation level was normalized to total H3 and H4 expression level. The samples from the rest of the brain were analyzed for terminal 4b levels at the time of sacrifice. […] Mouse brains were harvested, dissected, immediately frozen in liquid nitrogen and stored at −80°C. Mouse brain tissue was homogenized (polytron homogenizer, 20 s) in 2 volumes of histone extraction buffer (1×PBS, 5% Triton X-100 (v/v), 3 mM DTT, 1 mM orthovanadate, 5 mM NaF, 1 mM PMSF, 5 mM Na Butyrate, Roche complete protease inhibitor tablet) and centrifuged at 900 g for 8 min at 4°C. The resulting pellet was washed twice in 1 ml of histone extraction buffer before being re-suspended in 2–3 volumes of 0.2 M HCl. Samples were then vortexed briefly and left to shake vigorously for 3 h at 4°C using a VXR Vibrax 1.5 ml polypropylene tube shaker (IKA). After shaking, samples were centrifuged at 900 g for 8 min at 4°C and the resulting supernatant was retained and neutralized with 0.2 volumes of 1 M NaOH.

[10] = Partition into erythrocytes; format: in vitro ADME; details: mouse

T1 sequence (P21728 whole entry): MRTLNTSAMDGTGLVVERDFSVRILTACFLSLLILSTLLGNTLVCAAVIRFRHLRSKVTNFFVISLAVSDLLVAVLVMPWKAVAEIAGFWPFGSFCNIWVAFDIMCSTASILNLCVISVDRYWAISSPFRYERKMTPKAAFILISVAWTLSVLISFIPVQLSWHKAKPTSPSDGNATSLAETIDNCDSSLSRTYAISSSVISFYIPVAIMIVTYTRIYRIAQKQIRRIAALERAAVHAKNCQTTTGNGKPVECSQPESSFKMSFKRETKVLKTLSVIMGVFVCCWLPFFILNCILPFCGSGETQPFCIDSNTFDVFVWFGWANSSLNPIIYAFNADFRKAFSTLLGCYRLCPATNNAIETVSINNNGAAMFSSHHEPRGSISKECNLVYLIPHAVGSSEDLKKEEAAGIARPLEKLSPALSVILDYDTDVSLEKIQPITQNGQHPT

Structure (SMILES): O=C(CCCCCc1nc2ccccc2[nH]1)Nc1ccccc1 [Compound C1, 6-(1-H-benzo[d]imidazol-2-yl)-N-phenylhexanamide]
- inhibition at 10 µM [1]: 27%
- % inhibition of control specific binding [2]: 40%
- % inhibition of control specific binding [3]: 5%

Structure (SMILES): Nc1ccccc1NC(=O)CCCCCC(=O)Nc1ccccc1 [Compound 4b]
- efflux ratio at 1 h, 10 µM [4]: 4.9
- % inhibition of control specific binding [5]: 1%
- % inhibition of control specific binding [6]: 7%
- % inhibition of control specific binding [7]: 13%
- % inhibition of control specific binding [8]: 15%
- histone acetylation in cortical tissue (H3K4, H3K9, H3K14, H4K5, Ac-H3, Ac-H4) [9]: failed to enhance histone acetylation
- concentrations in whole blood relative to plasma [10]: approximately 4 times
- blood plasma ratio ([10]; whole blood, data not shown): ~3
